Test results taken from patent US8652776B2, “Prediction of QT prolongation based on SNP genotype” (Vanda Pharmaceuticals, Inc., priority 2007, dated 2014).

Experiments:
[1] = system: patients treated with iloperidone; assay: Occurrence of torsades de pointes in patients treated with iloperidone; format: in vivo, human; settings: any patient treated with iloperidone, to date
[2] = system: patients with schizophrenia; assay: Change in QTcF from baseline to Day 14 by SNP genotype, phase 3 clinical trial of iloperidone (WGAS); format: in vivo, human; settings: iloperidone 12 mg bid
Method: To identify new genetic markers of drug-induced QT prolongation, a whole genome association study (WGAS) was conducted as part of a phase 3 clinical trial of iloperidone. The clinical trial was a randomized, double-blind, placebo-, and ziprasidone-controlled multicenter study evaluating the efficacy, safety, and tolerability of a 24 mg/day dose of iloperidone administered twice a day (bid) for 28 days to patients with schizophrenia in acute exacerbation.
Therefore, the change in QT interval was calculated between baseline and Day 14. The Fridericia correction (QTcF) was applied, and a generalized linear model (GLM) statistical analysis using baseline as a covariate was performed. […] Analysis was focused on those SNPs located within or close to genes (<10 kb away) in which the minor genotype group included at least 10% of the patients. Six SNPs of interest were identified in the CERKL, SLCO3A1, BRUNOL4, NRG3, NUBPL, and PALLD genes (Table 1). The possibility that changes in the QT interval reflect drug concentration differences could not be excluded because drug exposure at the time of electrocardiography (ECG) was not known. However, the six SNPs identified here are within genes not expected to play roles in drug absorption, metabolism, or excretion. For these SNPs, genotype calls generated by the microarray set were confirmed by sequencing on a random subset of DNA samples of iloperidone-treated patients. The association of a particular genotype class with lower or higher increased QT was consistent between men and women and across races. Additional SNPs with statistical association at P<0.001 were observed within or near the CERKL, SLCO3A1, NRG3, NUBPL, and PALLD genes (FIGS. 1a-f).
Patients 18 to 65 years of age with diagnoses of schizophrenia according to the Diagnostic and Statistical Manual of Mental Disorders, 4th Edition (disorganized [295.10], paranoid [295.30], or undifferentiated [295.90]) were eligible to participate in the trial. Patients were randomly assigned to iloperidone 12 mg twice a day (bid), ziprasidone 80 mg bid (active control), or placebo. Doses were titrated to their respective target doses from Days 1 to 7 and were maintained until Day 28. Participation in the pharmacogenomic analysis was optional. Blood samples were collected, and DNA was extracted (Quest Diagnostics Laboratories, Van Nuys, Calif.) from 432 of 457 patients who consented to the optional WGAS, including 218 patients administered iloperidone. Of these iloperidone-treated patients, 183 (152 men and 31 women) with QT data at Day 14 were part of the WGAS reported here. They included 16 Asian, 69 white, and 91 black or African American patients and 7 patients of other ethnic origins.
Twelve-lead ECG was performed at baseline and on Days 7, 14, 21, and 28. Except at baseline, ECG was performed 2 hours after patients had received the morning dose of study drug. ECG was performed 3 times at baseline and on Day 14, with single measurements obtained for other visits. QTc interval was calculated based on QTcF. The effect of iloperidone on QTc interval was measured by the mean change from baseline in Qtc.
Genetic markers associated with prolongation of QTcF were identified through GLM analysis. The dependent variable was mean change from baseline to Day 14 because the effects on QT were greatest by Day 14, when iloperidone achieves steady state concentration. Baseline QTcF was used as a covariate, and genotype was used as the classifiable variable. The GLM used type 3 sums of squares, with all pairwise differences produced among the least squares means. Because 3 genetic models (AA vs non-AA; AB vs non-AB; BB vs non-BB) were tested for each of the 334,563 SNPs, a total of 1,003,689 tests were performed. The Benjamini and Hochberg (BH) procedure was used to control for the expected proportion of FDR. FDR corrections were obtained from PROC MULTTEST (SAS Institute, Cary, N.C.), which produces BH adjustments to original analytical P values. […]

With `COc1cc(C(C)=O)ccc1OCCCN1CCC(c2noc3cc(F)ccc23)CC1` [Iloperidone, 1-[4-[3-[4-(6-fluoro-1,2-benzisoxazol-3-yl)-1-piperidinyl]propoxy]-3-methoxyphenyl]ethanone] the “torsades de pointes in treated patients” value [1] was “no evidence to date indicates that any patient treated with iloperidone has experienced torsades de pointes”, the “mean change in QT (QTcF) from baseline to Day 14” value (from here on “mean change in QT (QTcF)”) ([2]; rs993648 (CERKL) genotype CC, N=50) was 17.02 ms and the “mean change in QT (QTcF)” value ([2]; rs993648 (CERKL) genotype CT (heterozygous), N=80) was 4.50 ms. For the same molecule, the “mean change in QT (QTcF)” value ([2]; rs993648 (CERKL) genotype CT (heterozygous), N=80, listed as iloperidone) was 4.5 ms, the “mean change in QT (QTcF)” value ([2]; rs993648 (CERKL) genotype Non-CT (homozygous), N=94) was 17.81 ms and the “mean change in QT (QTcF)” value ([2]; rs993648 (CERKL) genotype Non-CT (homozygous), N=94, listed as iloperidone) was 17.8 ms. For the same molecule, the “mean change in QT (QTcF)” value ([2]; rs993648 (CERKL) genotype TT, N=44) was 18.72 ms, the “mean change in QT (QTcF)” value ([2]; rs3924426 (SLCO3A1) genotype CC, N=5) was -7.00 ms and the “mean change in QT (QTcF)” value ([2]; rs3924426 (SLCO3A1) genotype CT, N=43) was 3.64 ms. The “mean change in QT (QTcF)” value ([2]; rs3924426 (SLCO3A1) genotype Non-TT, N=48) was 2.53 ms, the “mean change in QT (QTcF)” value ([2]; rs3924426 (SLCO3A1) genotype Non-TT, N=48, listed as iloperidone) was 2.5 ms and the “mean change in QT (QTcF)” value ([2]; rs3924426 (SLCO3A1) genotype TT, N=135) was 14.99 ms. For the same molecule, the “mean change in QT (QTcF)” value ([2]; rs3924426 (SLCO3A1) genotype TT, N=135, listed as iloperidone) was 15.0 ms, the “mean change in QT (QTcF)” value ([2]; rs4799915 (BRUNOL4) genotype CC, N=48) was 2.88 ms and the “mean change in QT (QTcF)” value ([2]; rs4799915 (BRUNOL4) genotype CC, N=48, listed as iloperidone) was 2.9 ms. The “mean change in QT (QTcF)” value ([2]; rs4799915 (BRUNOL4) genotype CT, N=78) was 13.52 ms, the “mean change in QT (QTcF)” value ([2]; rs4799915 (BRUNOL4) genotype Non-CC, N=132) was 14.46 ms and the “mean change in QT (QTcF)” value ([2]; rs4799915 (BRUNOL4) genotype Non-CC, N=132, listed as iloperidone) was 14.5 ms. For the same molecule, the “mean change in QT (QTcF)” value ([2]; rs4799915 (BRUNOL4) genotype TT, N=54) was 15.81 ms, the “mean change in QT (QTcF)” value ([2]; rs4933824 (NRG3) genotype GG, N=124) was 15.33 ms and the “mean change in QT (QTcF)” value ([2]; rs4933824 (NRG3) genotype GG, N=124, listed as iloperidone) was 15.3 ms. The “mean change in QT (QTcF)” value ([2]; rs4933824 (NRG3) genotype GT, N=47) was 4.62 ms, the “mean change in QT (QTcF)” value ([2]; rs4933824 (NRG3) genotype Non-GG, N=57) was 4.41 ms and the “mean change in QT (QTcF)” value ([2]; rs4933824 (NRG3) genotype Non-GG, N=57, listed as iloperidone) was 4.4 ms. For the same molecule, the “mean change in QT (QTcF)” value ([2]; rs4933824 (NRG3) genotype TT, N=10) was 3.41 ms, the “mean change in QT (QTcF)” value ([2]; rs7142881 (NUBPL) genotype AA, N=28) was 17.65 ms and the “mean change in QT (QTcF)” value ([2]; rs7142881 (NUBPL) genotype AG, N=71) was 16.35 ms. The “mean change in QT (QTcF)” value ([2]; rs7142881 (NUBPL) genotype GG, N=79) was 5.67 ms, the “mean change in QT (QTcF)” value ([2]; rs7142881 (NUBPL) genotype GG, N=79, listed as iloperidone) was 5.7 ms and the “mean change in QT (QTcF)” value ([2]; rs7142881 (NUBPL) genotype Non-GG, N=99) was 16.71 ms. The “mean change in QT (QTcF)” value ([2]; rs7142881 (NUBPL) genotype Non-GG, N=99, listed as iloperidone) was 16.7 ms, the “mean change in QT (QTcF)” value ([2]; rs17054392 (PALLD) genotype CC, N=2) was 17.33 ms and the “mean change in QT (QTcF)” value ([2]; rs17054392 (PALLD) genotype CT (heterozygous), N=30) was -0.69 ms. The “mean change in QT (QTcF)” value ([2]; rs17054392 (PALLD) genotype CT (heterozygous), N=30, listed as iloperidone) was -0.7 ms, the “mean change in QT (QTcF)” value ([2]; rs17054392 (PALLD) genotype Non-CT, N=153) was 14.16 ms and the “mean change in QT (QTcF)” value ([2]; rs17054392 (PALLD) genotype Non-CT, N=153, listed as iloperidone) was 14.2 ms. The “mean change in QT (QTcF)” value ([2]; rs17054392 (PALLD) genotype TT, N=151) was 14.12 ms.
